Laboratory results from patent publication US20230364180A1, “COMPOSITION FOR IMPROVING MILD COGNITIVE IMPAIRMENT AND METHOD FOR IMPROVING MILD COGNITIVE IMPAIRMENT” (TOKAI BUSSAN CO., LTD., priority 2019, published 2023).

Assays:
[1] = stated as known; cited from earlier work
[2] = Proteolytic action on target protein by hydroxyl radical (FIG. 2A); assay type: biochemical; details: prevention of degradation of target protein
Description: FIG. 2A is a hydroxyl radical, in which 1 is untreated target protein, 2 is no antioxidant added, 3 is IMDP added, 4 is vitamin C added, 5 is ferulic acid added, 6 is IMDP+vitamin C+ferulic acid added; and […]

[3] = stated as known; cited from earlier work; remark: listed apart in the source
[4] = Proteolytic action on target protein by peroxynitrite radical (FIG. 2B); assay type: biochemical; details: prevention of degradation of target protein

CC1=C(/C=C/C(C)=C/C=C/C(C)=C/C=C/C=C(C)/C=C/C=C(C)/C=C/C2=C(C)C(=O)[C@@H](O)CC2(C)C)C(C)(C)C[C@H](O)C1=O [astaxanthin]
antioxidant activity against hydroxyl radicals (known) [1]: strong

COc1cc(/C=C/C(=O)O)ccc1O [ferulic acid]
antioxidant activity against hydroxyl radicals [2]: strong

O=C1O[C@H]([C@@H](O)CO)C(O)=C1O [vitamin C]
antioxidant activity against peroxynitrite radicals (known) [3]: strong | antioxidant activity against peroxynitrite radicals [4]: strong

vitamin E
antioxidant activity against hydroxyl radicals (known) [1]: strong
